Reference: patent US20190030018A1 (Celgene Corporation, priority 2017, published 2019)

System: 563 solid tumor cell lines
Experiment: Luminex assay in PRISM, 5 days treatment (AUC)
Assay type: cell-based
Design: AUC: scale not given here
Method: The AUC values provided in Table 80 below were calculated based on the Median Fluorescent Intensity values, the primary read out of the Luminex assay in PRISM. The following parameters were used in this assay: • 8 point dose was used in triplicate • max concentration of 10 μM was used with serial 4-fold dilutions (low of […]) • 563 adherent cell lines in 23 pools. • treatment duration was 5 days.

SMILES: O=C1CCC(N2Cc3cc(CNC(=O)C(F)(F)c4ccc(Cl)cc4)ccc3C2=O)C(=O)N1 (stereo not shown) [Compound 1, 2-(4-chlorophenyl)-N-((2-(2,6-dioxopiperidin-3-yl)-1-oxoisoindolin-5-yl)methyl)-2,2-difluoroacetamide]
- AUC (SIMA_AUTONOMIC_GANGLIA): 0.764
- AUC (SJSA1_BONE): 0.808
- AUC (SKES1_BONE): 0.984
- AUC (SKHEP1_LIVER): 0.817
- AUC (SKLU1_LUNG): 0.644
- AUC (SKMEL2_SKIN): 0.910
- AUC (SKMEL3_SKIN): 0.848
- AUC (SKMEL5_SKIN): 0.831
- AUC (SKMEL24_SKIN): 0.862
- AUC (SKMEL30_SKIN): 0.795
- AUC (SKMES1_LUNG): 0.902
- AUC (SKNAS_AUTONOMIC_GANGLIA): 0.832
- AUC (SKNBE2_AUTONOMIC_GANGLIA): 0.879
- AUC (SKNEP1_BONE): 0.523
- AUC (SKNFI_AUTONOMIC_GANGLIA): 0.852
- AUC (SKOV3_OVARY): 0.850
- AUC (SKPNDW_BONE): 0.861
- AUC (SKUT1_SOFT_TISSUE): 0.845
- AUC (SNB75_CENTRAL_NERVOUS_SYSTEM): 0.768
- AUC (SNGM_ENDOMETRIUM): 0.794
- AUC (SNU46_UPPER_AERODIGESTIVE_TRACT): 0.925
- AUC (SNU61_LARGE_INTESTINE): 0.881
- AUC (SNU81_LARGE_INTESTINE): 0.400
- AUC (SNU182_LIVER): 0.179
- AUC (SNU216_STOMACH): 0.521
- AUC (SNU245_BILIARY_TRACT): 0.853
- AUC (SNU308_BILIARY_TRACT): 0.873
- AUC (SNU398_LIVER): 0.951
- AUC (SNU407_LARGE_INTESTINE): 0.284
- AUC (SNU410_PANCREAS): 0.994
- AUC (SNU423_LIVER): 0.697
- AUC (SNU449_LIVER): 0.971
- AUC (SNU668_STOMACH): 0.423
- AUC (SNU685_ENDOMETRIUM): 0.812
- AUC (SNU719_STOMACH): 0.869
- AUC (SNU738_CENTRAL_NERVOUS_SYSTEM): 0.826
- AUC (SNU840_OVARY): 0.848
- AUC (SNU869_BILIARY_TRACT): 0.782
- AUC (SNU878_LIVER): 0.890
- AUC (SNU886_LIVER): 0.656
- AUC (SNU1041_UPPER_AERODIGESTIVE_TRACT): 0.806
- AUC (SNU1066_UPPER_AERODIGESTIVE_TRACT): 0.860
- AUC (SNU1077_ENDOMETRIUM): 0.759
- AUC (SNU1105_CENTRAL_NERVOUS_SYSTEM): 0.620
- AUC (SNU1196_BILIARY_TRACT): 0.653
- AUC (SNU1214_UPPER_AERODIGESTIVE_TRACT): 0.826
- AUC (SNUC2A_LARGE_INTESTINE): 0.608
- AUC (SNUC4_LARGE_INTESTINE): 0.290
- AUC (SQ1_LUNG): 0.838
- AUC (SU8686_PANCREAS): 0.848
- AUC (SUIT2_PANCREAS): 0.856
- AUC (SW780_URINARY_TRACT): 0.986
- AUC (SW837_LARGE_INTESTINE): 0.995
- AUC (SW948_LARGE_INTESTINE): 0.766
- AUC (SW1088_CENTRAL_NERVOUS_SYSTEM): 0.835
- AUC (SW1116_LARGE_INTESTINE): 0.879
- AUC (SW1271_LUNG): 0.718
- AUC (SW1573_LUNG): 0.894
- AUC (SW1710_URINARY_TRACT): 0.835
- AUC (SW1990_PANCREAS): 0.874
- AUC (T3M10_LUNG): 0.951
- AUC (T24_URINARY_TRACT): 0.906
- AUC (T47D_BREAST): 0.698
- AUC (T98G_CENTRAL_NERVOUS_SYSTEM): 0.830
- AUC (TC32_BONE): 0.681
- AUC (TCCPAN2_PANCREAS): 0.905
- AUC (TE1_OESOPHAGUS): 0.875
- AUC (TE5_OESOPHAGUS): 0.797
- AUC (TE6_OESOPHAGUS): 0.864
- AUC (TE8_OESOPHAGUS): 0.802
- AUC (TE9_OESOPHAGUS): 0.911
- AUC (TE10_OESOPHAGUS): 0.872
- AUC (TE11_OESOPHAGUS): 0.870
- AUC (TE14_OESOPHAGUS): 0.898
- AUC (TEN_ENDOMETRIUM): 0.815
- AUC (TM31_CENTRAL_NERVOUS_SYSTEM): 0.424
- AUC (TOV21G_OVARY): 0.864
- AUC (TOV112D_OVARY): 0.871
- AUC (TT2609C02_THYROID): 0.251
- AUC (TTC709_SOFT_TISSUE): 0.520
- AUC (TT_OESOPHAGUS): 0.859
- AUC (TT_THYROID): 0.179
- AUC (TUHR4TKB_KIDNEY): 0.265
- AUC (U2OS_BONE): 0.862
- AUC (U87MG_CENTRAL_NERVOUS_SYSTEM): 0.724
- AUC (U118MG_CENTRAL_NERVOUS_SYSTEM): 0.871
- AUC (U251MG_CENTRAL_NERVOUS_SYSTEM): 0.806
- AUC (UACC62_SKIN): 0.837
- AUC (UACC257_SKIN): 0.863
- AUC (UBLC1_URINARY_TRACT): 0.875
- AUC (UO31_KIDNEY): 0.710
- AUC (VMRCRCW_KIDNEY): 0.345
- AUC (VMRCRCZ_KIDNEY): 0.969
- AUC (WM88_SKIN): 0.802
- AUC (WM793_SKIN): 0.866
- AUC (WM983B_SKIN): 0.861
- AUC (WM1799_SKIN): 0.101
- AUC (WM2664_SKIN): 0.578
- AUC (X8MGBA_CENTRAL_NERVOUS_SYSTEM): 0.805
- AUC (X42MGBA_CENTRAL_NERVOUS_SYSTEM): 0.845
- AUC (X253JBV_URINARY_TRACT): 0.966
- AUC (X253J_URINARY_TRACT): 0.905
- AUC (X647V_URINARY_TRACT): 0.284
- AUC (X769P_KIDNEY): 0.463
- AUC (X786O_KIDNEY): 0.853
- AUC (X5637_URINARY_TRACT): 0.624
- AUC (X8305C_THYROID): 0.849
- AUC (X8505C_THYROID): 0.558
- AUC (X2313287_STOMACH): 0.254
- AUC (YAPC_PANCREAS): 0.719
- AUC (YD8_UPPER_AERODIGESTIVE_TRACT): 0.501
- AUC (YD10B_UPPER_AERODIGESTIVE_TRACT): 0.903
- AUC (YD38_UPPER_AERODIGESTIVE_TRACT): 0.877
- AUC (YKG1_CENTRAL_NERVOUS_SYSTEM): 0.936
- AUC (ZR751_BREAST): 0.853
